According to patent publication EP1179529A1, “NOVEL HYDROXAMIC ACID DERIVATIVES” (Daiichi Fine Chemical Co., Ltd., priority 1999, dated 2000):
Where a name gives a salt, the structure may show the parent alone.

Columns and labels:
MMP-1 = target: T1, MMP-1 (Homo sapiens, UniProt P03956); assay: Assay for inhibition of collagenase; assay type: biochemical; settings: human fibroblast collagenase activated with APMA; substrate fluorescein-labeled bovine type I collagen; 35°C, 2 hours, pH 7.5
T1 sequence (P03956 100-469): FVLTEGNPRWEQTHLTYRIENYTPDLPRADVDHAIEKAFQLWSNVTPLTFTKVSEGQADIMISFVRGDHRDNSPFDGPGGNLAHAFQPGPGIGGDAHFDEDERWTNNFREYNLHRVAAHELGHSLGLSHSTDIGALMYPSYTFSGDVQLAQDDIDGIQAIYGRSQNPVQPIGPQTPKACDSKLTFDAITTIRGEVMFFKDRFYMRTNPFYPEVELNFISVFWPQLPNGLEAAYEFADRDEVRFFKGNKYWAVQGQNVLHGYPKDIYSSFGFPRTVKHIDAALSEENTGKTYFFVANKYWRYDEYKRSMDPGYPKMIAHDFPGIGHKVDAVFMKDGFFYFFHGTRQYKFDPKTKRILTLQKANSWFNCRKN
Procedure: (§1) Described below are assays for biological activities of the compounds according to the present invention, formulations, dosage forms and dosage levels thereof, and miscellaneous matters. The efficacy of the compounds represented by the formula (I) according to the present invention as inhibitors of human fibroblast collagenase (metalloproteinase involved in the breakdown of tissues) is determined by a procedure based on the method of Y. Murawaki et al., Journal of Hepatology, 18, p328-334 (1993). The efficacy of the compounds (I) of this invention as inhibitors of human fibroblast stromelysin is determined by a procedure based on the method of S. S. Twining, Anal. Biochem., 143, p30 (1984). The assay results obtained are shown hereinbelow, together with biological examples which illustrate embodiments of the assay protocols.
The efficacy of compounds of the present invention to act as inhibitors of human fibroblast collagenase was determined by the procedure of Y. Murawaki et al. (Journal of Hepatology, 18, p.328-334, 1993).
Procollagenase was activated by incubation with 2 mM 4-aminophenylmercuric acetate (APMA) at 35°C for 2 hours. The inhibition was assayed using, as a substrate, fluorescein-labeled bovine type I collagen. To a solution of the substrate (0.5 mg/ml) in a 50 mM Tris-HCl buffer, pH 7.5, containing 0.4M aqueous sodium chloride and 10 mM aqueous calcium chloride was added the activated collagenase. The resultant solution was incubated at 35°C for 2 hours. The digestion of the substrate with the enzyme was stopped by addition of 80 mM o-phenanthroline, followed by addition of a porcine elastase solution formed by dissolving 25µ g/ml porcine elastase in the aforementioned Tris-HCl buffer. The mixture was incubated at 37°C for 10 minutes. To the resulting solution was added 70% ethanol, and a 170 mM Tris-HCl buffer, pH 9.5, containing 0.67 M aqueous sodium chloride. Undigested substrates were precipitated by centrifugation at 3000 x g for 20 minutes. The supernatant was collected and the fluorescence was read using an excitation wavelength of 495 nm and an emission wavelength of 520 nm. The inhibitory potency of the compounds was calculated. IC50 represents the concentration of each test compound requited for 50% inhibition of cleavage of substrates by the enzyme alone. The compounds of the present invention have potent inhibitory activities (Table 1).

MMP-3 = MMP-3 (Homo sapiens, UniProt P08254); assay: Assay for inhibition of stromelysin; assay type: biochemical; settings: human fibroblast stromelysin activated with human plasmin; substrate fluorescein-labeled casein; 37°C, 2 hours, pH 7.8
Sequence of MMP-3 (P08254 100-477): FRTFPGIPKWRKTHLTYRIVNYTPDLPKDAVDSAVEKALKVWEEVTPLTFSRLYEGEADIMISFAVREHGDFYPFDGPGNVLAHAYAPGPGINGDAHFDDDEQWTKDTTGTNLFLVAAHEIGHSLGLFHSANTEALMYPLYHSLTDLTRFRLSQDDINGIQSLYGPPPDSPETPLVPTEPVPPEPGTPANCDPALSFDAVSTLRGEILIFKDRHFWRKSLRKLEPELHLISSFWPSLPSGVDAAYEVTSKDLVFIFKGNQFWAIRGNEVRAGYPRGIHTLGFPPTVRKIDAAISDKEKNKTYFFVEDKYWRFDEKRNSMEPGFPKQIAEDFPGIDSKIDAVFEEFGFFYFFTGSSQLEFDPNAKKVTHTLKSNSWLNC
Procedure: as §1
The efficacy of compounds of the present invention to act as inhibitors of human fibroblast stromelysin was determined by the procedure of Twining (Anal. Biochem., 143, p.30, 1984).
Prostromelysin was activated by incubation with 20µ g/ml human plasmin at 37°C for 2 hours, and the reaction was stopped by addition of 2.8 mg/ml aqueous diisopropyl fluorophosphate. The inhibition was assayed using, as a substrate, fluorescein-labeled casein. To a solution of the substrate (1 mg/ml) in a 50 mM Tris-HCl buffer, pH 7.8, containing 10mM aqueous calcium chloride was added the activated stromelysin. The resultant solution was incubated at 37°C for 2 hours. The digestion of the substrate with the enzyme was stopped by addition of 5% trichloroacetic acid. Undigested substrates were precipitated by centrifugation at 3000 x g for 20 minutes. The supernatant was collected, followed by addition of a 0.5M Tris-HCl buffer, pH 8.5. The fluorescence was read using an excitation wavelength of 495 nm and an emission wavelength of 520 nm. The inhibitory potency of the compounds was calculated. IC50 represents the concentration of each test compound requited for 50% inhibition of cleavage of substrates by the enzyme alone. […]

`COC(=O)[C@H](Cc1ccc(CN)cc1)NC(=O)[C@H](CC(C)C)[C@H](CCCc1ccccc1)C(=O)NO` [Compound No. 7, N^a-[4-(N-Hydroxyamino)-2(R)-isobutyl-3(S)-(3-phenylpropyl)-succinyl]-L-4'-aminomethylphenylalanine methyl ester · 1 acetate] showed an IC50 (MMP-1) of 167 nM.
Compound `CC(C)C[C@@H](C(=O)N[C@@H](Cc1ccc(CN)cc1)C(=O)O)[C@H](CCCc1ccccc1)C(=O)NO` [Compound No. 8, N^a-[4-(N-Hydroxyamino)-2(R)-isobutyl-3(S)-(3-phenylpropyl)-succinyl]-L-4'-aminomethylphenylalanine · 1 hydrochloride] has an IC50 (MMP-1) of 340 nM.
In the case of `COC(=O)[C@H](Cc1ccc(CNC(C)=N)cc1)NC(=O)[C@H](CC(C)C)[C@H](CCCc1ccccc1)C(=O)NO` [Compound No. 9, N^a-[4-(N-Hydroxyamino)-2(R)-isobutyl-3(S)-(3-phenylpropyl)-succinyl]-L-4'-acetimidoyliminomethylphenylalanine methyl ester 1 hydrochloride], the IC50 (MMP-3) is reported as 20 nM and the IC50 (MMP-1) is reported as 30 nM.
`CC(=N)NCc1ccc(C[C@H](NC(=O)[C@H](CC(C)C)[C@H](CCCc2ccccc2)C(=O)NO)C(=O)O)cc1` [Compound No. 10, N^a-[4-(N-Hydroxyamino)-2(R)-isobutyl-3(S)-(3-phenylpropyl)-succinyl]-L-4'-acetimidoyliminomethylphenylalanine · 1 acetate] was tested, and the IC50 (MMP-3) was 70 nM and the IC50 (MMP-1) was 500 nM.
Work on `CC(C)C[C@@H](C(=O)N[C@@H](Cc1ccc(CN)cc1)C(=O)O)[C@H](CCCc1ccccc1)C(=O)NO` [Compound No. 11, N^a-[4-(N-Hydroxyamino)-2(R)-isobutyl-3(S)-(3-phenylpropyl)-succinyl]-L-4'-aminomethylphenylalanine] yielded an IC50 (MMP-3) of 29 nM and an IC50 (MMP-1) of 418 nM.
